Experimental data taken from article PMC5045423, “X66, a novel N-terminal heat shock protein 90 inhibitor, exerts antitumor effects without induction of heat shock response” (Oncotarget, 2016).

Key:
HSP90α [1] = target: T1, HSP90α (Homo sapiens, UniProt P07900); assay: streptavidin pull-down of purified full-length HSP90α and NTD, competed by excess soluble X66; format: binding; parameters: gene HSP90AA1; recombinant human full-length protein and its N-terminal fragment, but not the C-terminal fragment
HSP90α [2] = target: T1, HSP90α; assay: SPR (BIAcore […], immobilized full-length HSP90α); also competes with Biotin-X66 for the N-terminal domain in pull-down; format: binding; parameters: gene HSP90AA1; recombinant human full-length HSP90α

| SMILES | streptavidin pull-down of purified full-length HSP90α and NTD, competed by exces (HSP90α [1]) | Kd (HSP90α [2]) |
| --- | --- | --- |
| Cc1cc(C)n(-c2nc(NN=Cc3cn(C(=O)CCCC[C@@H]4SC[C@@H]5NC(=O)N[C@@H]54)c4ccccc34)nc(Nc3ccc(Br)cc3)n2)n1 [Biotin-X66] | Biotin-X66 was able to isolate the recombinant human full-length protein and its N-terminal fragment, but not the C-terminal fragment | – |
| Cc1cc(C)n(-c2nc(NN=Cc3c[nH]c4ccccc34)nc(Nc3ccc(Br)cc3)n2)n1 [X66, 4-(2-((1H-indol-3-yl)methylene)hydrazinyl)-N-(4-bromophenyl)-6-(3,5-dimethyl-1H -pyrazol-1-yl)-1,3,5-triazin-2-amine] | – | 5.3 µM |
